We go through seven compounds from PMC12699179, “Investigating Metal and Fluorophore Controlled Intracellular Localization in Noble Metal Thiosemicarbazone Complexes” (Chemistry (Weinheim an Der Bergstrasse, Germany), 2025).

Details of series [1]: method as in PMID 40488845. To be noted: 1H NMR, over 24 hours; cited from earlier work.
The subject of series [2] is HeLa cells. Further details: method as in PMID 40488845. The note with it: 24 hours incubation, highest tested concentration 15 µM; cited from earlier work.
The test system of series [3] is HeLa cells. The series can be described thus: MTT antiproliferative / cell viability assay. Type of series: cell-based. The note with it: for IC50: mean of three ± SD; for in vitro activity compared to its ligand: 72 hours. As for the experimental part: We investigated the antiproliferative activities of compounds 4‒8 against HeLa cells using the standard 3‐(4,5‐dimethylthiazol‐2‐yl)‐2,5‐diphenyltetrazolium bromide (MTT) assay (Table 2). […]
8. Cell viability studies […]
media. All biological experiments were thus conducted using 5 mM stock solutions in DMSO that were diluted with culture medium to produce a final concentration of 0.5% DMSO for all experiments unless specified otherwise.
Cell viability experiments
HeLa cells were harvested, pelleted by centrifugation, and resuspended in cell culture medium. The MTT assays were carried out in 96 well plates at a starting density of 1500 cells per well in 100 µL of culture medium. The next day, a dilution series of 7 different concentrations was prepared for each evaluated compound. After 24 h of incubation, the cells were treated with 100 µL of culture medium containing the prepared conc entrations of the respective compounds to reach a final volume of 200 µL in each well. As a negative control, one series of cells was treated with the vehicle only (0.5% DMSO). […]
MTT dye (2.5 mg/mL). After a further incubation of 2 h, the medium was aspired off, and 200 µL DMSO was added to solubilize the precipitated formazan dye. The formazan absorption was measured on a BMG LABTECH CLARIOstar Plus plate reader at 550 nm, using a reference wavelength of 620 nm. Using the mean absorbance of each set of identically treated wells, a dose-response curve was produced and normalized to the wells containing untreated cells to allow for plate-to-plate comparison. The dose-response curves were then subjected to non-linear regression analysis performed in Microsoft Excel to determine IC50 values. Data is shown as the mean of three replicate experiments, and error bars represent the standard

A short description of series [4]: Stability in cell culture medium by UV/Vis spectroscopy. The format is physicochemical. The note with it: 50 µM, DMEM with 10% fetal bovine serum, over 72 hours. As for the experimental part:
Likewise, the stability of these complexes was shown via UV/Vis spectrophotometry in cell culture medium over 72 hours.^[ [22] ^] The stability of the newly synthesized compounds was investigated similarly. […] However, the absorption profiles remained distinctly different from those of the corresponding free ligands, which was taken as evidence that the Pd(II) metal center remained chelated by the ligand.
(§1) Stability in Cell Culture Medium and Water
(§2) 5 mM stocks of the respective compounds in DMSO were diluted to produce a final concentration of 50 µM in water or Dulbecco's Modified Eagle's Medium (DMEM) containing 10% fetal bovine serum and 1% penicillin + streptomycin , respectively. The stability of the compounds was monitored via UV/Vis spectroscopy by recording the corresponding absorption profiles of the 50 µM solutions and comparing any changes to the profiles over […]

Series [5] concerns HeLa cells. The experiment in a line: Cellular uptake assay, metal content by ICP-MS. The format is cell-based. To be noted: 10 µM, 24 h, whole cell accumulation by ICP-MS. As for the experimental part: Subsequently, we investigated the uptake of the conjugates 5 and 7 (at 10 µM) by incubating HeLa cells with the respective compounds for 24 hours and analyzing the final metal concentration inside the cells using inductively coupled plasma mass spectrometry (ICP‐MS). […]
HeLa cells were harvested and seeded in 100 mm × 21 mm cell culture dishes at a density of 200,000 cells per dish in 10 mL of growth medium. After 96 hours of incubation, when the cells had reached 90% confluency, the growth medium was aspirated and replaced with fresh medium containing 10 μM of a compound belonging to sets 5 or 7, respectively. The cells were incubated with the compound for 24 h, after which the medium was aspirated, and the cells were washed three times with 10 mL of PBS buffer. Subsequently, the washed cells were […]
trypsinized for 3 min, and the trypsin reaction was halted by the addition of 3 mL growth media.
Cells were suspended in the mixture, and the total cell count was determined using a Bio -Rad TC20 cell counter. The cell suspension was centrifuged at 5000 rpm for 5 minutes, and the supernatant was removed. The cells were then digested using 2 mL of aqua regia (3:1 v/v, 37% HCl and 70% HNO3, trace metal basis quality (Aldrich, purity ≥99.999%)) and sonicated at 60 °C for 16 h. The dissolved samples were then diluted with 13 mL of HPLC-grade water to reach a final volume of 15 mL. The total metal content of the samples was then determined via ICP-MS analysis (Thermo Scientific iCAP RQ, ASX-560) in Ar plasma in KED mode with He as collision gas. Reference to standards was made, and calibration curves were developed using commercial calibration standards (TraceCert®, Merck).
Fluorophore Compound Metal content
Table S3: Whole cell accumulation of compound sets 5 and 7 analyzed using ICP-MS and expressed in terms of total metal content. […]

Series [6] in a line: Lipophilicity, n-octanol/PBS distribution (logD7.2). The format is physicochemical. To be noted: n-octanol/PBS distribution at pH 7.2; mean of three measurements ± SD. From the text: Having synthesized and assessed the stabilities of the complexes, we moved on to measure their lipophilicities at pH = 7.2 using the n‐octanol/PBS partition coefficient (Table 1).^[ [33], [34] ^] While the complexes were all highly lipophilic, the BODIPY‐conjugated complexes were more lipophilic than their coumarin analogs. In both sets of conjugates, the logD values followed the trend Pd(II) > Pt(II) > Au(III), with the monocationic Au(III) complexes being the least lipophilic.
7. Lipophilicity (logD7.2)
500 mL aliquots of purified octanol and PBS were thoroughly mixed in a 2 L separatory funnel and left overnight to saturate the two phases. For compound sets 5 and 7, 20 μM standard solutions were prepared in PBS-saturated octanol, respectively. 5 mL standard solutions containing the compound in question were then pipetted into 15 mL centrifuge tubes, and a 5 mL aliquot of the octanol-saturated PBS was added. The resulting samples were shaken for 10 min and allowed to rest overnight for 18 hours. The samples were then centrifuged for 30 min (3000 g, 20 °C), and aliquots of the octanol phase were analyzed via UV -Vis spectroscopy.
Experiments were conducted in triplicate. The concentrations of the compounds in the octanol phase were then quantified with respect to their λmax. […]
where A0 = absorbance of 20 μM compound in PBS-saturated octanol

Details of series [7]: method as in PMID 40488845. To be noted: UV/Vis, over 72 hours; cited from earlier work.
Series [8] in a line: Stability in water by UV/Vis spectroscopy. The format is physicochemical. The note with it: 50 µM, after 72 hours. The protocol: In the case of the Au(III) complexes, both the BODIPY conjugated complex 7a and the parent Dp44mT complex 8a ostensibly decomposed in cell culture medium, as their absorption profiles in media lacked the characteristic charge transfer band at λmax ∼440 nm observed in water. […] However, a slight shift in the λmax coupled with a decrease in absorbance was observed (Figure 4D).
as §1, §2

Where [9] appears, read: Homo sapiens, 24 hours incubation, read-out: IC50 24 hours.
Setting [10] is: Homo sapiens, 72 hours incubation, read-out: IC50 72 hours.
Setting [11] is: 24 hours incubation, read-out: IC50 24 hours.
The mark [12] stands for this setting: 72 hours incubation, read-out: IC50 72 hours.

Like-named read-outs stand apart in the source and are kept apart here.

By IC50 is commonly meant the midpoint of a concentration-inhibition curve. In the case of `CN(C)C(=S)NN=C(c1ccccn1)c1cccc(CCNC(=O)CCCNC(=O)c2cc3cc4c5c(c3oc2=O)CCCN5CCC4)n1` [Compound 4], in series [1], the “stability in DMSO-d6” value is “stable”. Besides, in series [2], the “effect on cell viability after 24 hours” value was “did not affect cell viability”. For the same compound, the half-maximal inhibitory concentration (IC50) in series [3] (setting [9]) is over 15 µM; in series [3] (setting [10]), 0.8 ± 0.1 µM.

As for `CN(C)C1=N[N+]2=C(c3cccc(CCNC(=O)CCCNC(=O)c4cc5cc6c7c(c5oc4=O)CCCN7CCC6)n3)c3cccc[n+]3[Au-]2([Cl])[S]1.F[P-](F)(F)(F)(F)F` (stereo not shown) [Compound 5a], in series [4], the “stability in cell culture medium” value is on record as “similarly decomposed”. The Metal content in series [5] was determined as 0.032 ± 0.016 pg/cell. Further, the IC50 in series [3] (setting [11]) was over 15 µM; in series [3] (setting [12]), 3.1 ± 0.3 µM. In series [3], the “in vitro activity compared to its ligand” value is listed as “fourfold lower activity”. For the same compound, the “logD 7.2” value in series [6] was 0.99 ± 0.02.

Regarding `CN(C)C1=N[N+]2=C(c3cccc(CCNC(=O)CCCNC(=O)c4cc5cc6c7c(c5oc4=O)CCCN7CCC6)n3)c3cccc[n+]3[Pt-2]2([Cl])[S]1` (stereo not shown) [Compound 5b], the “stability in DMSO-d6” value in series [1] was “stable”. In series [5], the Metal content was 0.016 ± 0.005 pg/cell. In addition, the “stability in cell culture medium” value in series [7] is reported as “stable”. The “effect on cell viability after 24 hours” value in series [2] is listed as “did not affect cell viability”. Also, the IC50 in series [3] (setting [11]) was over 15 µM; in series [3] (setting [12]) it was 58.2 ± 4.3 µM. In addition, the “logD 7.2” value in series [6] was 1.47 ± 0.03.

On to `CC1=CC(C)=[N+]2C1=Cc1ccc(CCC(=O)NCCc3cccc(C(=NNC(=S)N(C)C)c4ccccn4)n3)n1[B-]2(F)F` [Compound 6], for which the results for the IC50 in series [3] (setting [9]) and in series [3] (setting [10]) were over 15 µM and 0.8 ± 0.1 µM, respectively.

With `CC1=CC(C)=[N+]2C1=Cc1ccc(CCC(=O)NCCc3cccc(C4=[N+]5N=C(N(C)C)[S][Au-]5([Cl])[n+]5ccccc54)n3)n1[B-]2(F)F.F[P-](F)(F)(F)(F)F` (stereo not shown) [Compound 7a], the “stability in cell culture medium” value in series [4] is “decomposed”. Also, the stability in water result in series [8] is recorded as “only mild degradation”. This compound also gave a Metal content in series [5] of 0.035 ± 0.007 pg/cell. Further, the values for the IC50 in series [3] (setting [11]) and in series [3] (setting [12]) were over 15 µM and 0.6 ± 0.1 µM, respectively. In addition, the “in vitro activity compared to its ligand” value in series [3] is listed as “comparable to their respective ligands”. Besides, the “logD 7.2” value in series [6] came to 1.53 ± 0.07.

Take `CN(C)C1=N[N+]2=C(c3ccccn3)c3cccc[n+]3[Au-]2([Cl])[S]1.[Cl][Au-][Cl]` (stereo not shown) [Compound 8a]: the “stability in cell culture medium” value in series [4] is “decomposed”. Also, the stability in water result in series [8] is on record as “only mild degradation”. Further, the IC50 in series [3] (setting [11]) is over 15 µM; in series [3] (setting [12]) it was 0.009 ± 0.0005 µM. For the same compound, the “in vitro activity compared to its ligand” value in series [3] is “comparable to their respective ligands”.

`CN(C)C(=S)NN=C(c1ccccn1)c1ccccn1` [Dp44mT, di‐2‐pyridylketone‐4,4‐dimethyl‐3‐thiosemicarbazone, reference compound]: the “effect on cell viability after 24 hours” value in series [2] is recorded as “did not affect cell viability”. Besides, the IC50 was over 15 µM in series [3] (setting [9]) and 0.009 ± 0.0003 µM in series [3] (setting [10]).
